US20200325453A1, “METHOD FOR PRODUCING NAÏVE PLURIPOTENT STEM CELLS” (priority 2015, published 2020)

Experiments:
ESRRB [1] = test: ESRRB gene expression by qPCR, effect of Go6983 addition timing (Example 3); format: cell-based, human; details: 201B7 cells passage 1; KSR 2iLFA medium with Go6983 (5 μM) versus without; doxycycline added; low oxygen
Procedure: The iPS cells gene-introduced and cloned in “1.2 Generation of gene-introduced cell line” were dissociated into single cells by using a dissociation solution and TrypLE™ Select, and seeded in a 6-well plate at 1×10^5 cells/well in which MEF cells had been seeded as feeder. At this time, as a medium, 2iLFA+Go6983 medium shown in Table 1 (hereinafter, also abbreviated as “the medium of the present invention”) was used, and cultured in low oxygen in a state in which doxycycline (1 μg/mL) was further added so as to induce expression of the introduced gene (Passage 1; P1). Note here that on the first day of the start of making naïve, Y27632 (ROCK inhibitor) was added so as to be 10 μM, […]. On day 5 to 7 after the start of making naïve, subculturing was performed. The medium was removed, and then 350 μL of 0.25% Trypsin-EDTA was added in each well to cause reaction for one minute at 37° C. The reaction was stopped by Trypsin Inhibitor, and then 5 mL of medium was added thereto. Pipetting was carried out several times using PIPETTE AID to detach colonies of iPS cells from a sheet of feeder cells. The colonies were collected in a 15-mL tube. After centrifugation, a supernatant was removed, and 200 μL of medium was added, followed by pipetting using P200 […] about 40 times to be dissociated into single cells. […]

ESRRB [2] = test: ESRRB gene expression by qPCR, effect of Forskolin and A83-01 on making naïve (Example 4); format: cell-based, human; details: 201B7 cells; 10 μM Forskolin and 0.5 μM A83-01 added to 2iL+Go6983 medium

| Structure (SMILES) | expression of ESRRB (ESRRB [1]) | maintenance of the naïve state of iPS cells after stopping induction of expression of the introduced gene (ESRRB [2]) |
| --- | --- | --- |
| COc1ccc2c(c1)c(C1=C(c3c[nH]c4ccccc34)C(=O)NC1=O)cn2CCCN(C)C [Go6983, 3-[1-[3-(dimethylamino)propyl]-5-methoxy-1H-indole-3-yl]-4-(1H-indole-3-yl)-1H-pyrrole-2,5-dione] | higher expression of ESRRB |  |
| Cc1cccc(-c2nn(C(=S)Nc3ccccc3)cc2-c2ccnc3ccccc23)n1 [A83-01, 3-(6-methyl-2-pyridinyl)-N-phenyl-4-(4-quinolinyl)-1H-pyrazole-1-carbothioamide] |  | needed in order to maintain the naïve state of the iPS cells |
